Patent US6803501B2 (Monsanto Technology, LLC, priority 2000, dated 2004)

System: E. coli SR481 cells expressing E. indica EPSP synthase (tolerant vs sensitive biotype)
Test: growth of transgenic E. coli aroA- cells expressing E. indica EPSPS in the presence of glyphosate (FIG. 3)
Assay type: cell-based
Settings: M9 minimal media, 0.0, 0.5, 1.5 or 5.0 mM glyphosate, 0-48 hours, vs sensitive biotype enzyme
Description: The EPSP synthase mature protein-coding regions isolated from the glyphosate tolerant and glyphosate sensitive E. indica biotypes, can be directly compared for their ability to confer tolerance to glyphosate in transgenic hosts.
These sequences are employed in RT-PCR reactions to generate expression cassettes suitable for cloning into pMON45337 cut with the restriction enzymes Nde1 and EcoR1. RT-PCR reactions are performed with total RNAs extracted from frozen crown samples using the RNeasy Plant Mini Kit (cat.#74904, Qiagen Inc., Valencia, Calif.) per manufacturer's instructions. Oligo dT-primed first-strand cDNAs are prepared from 5 μg samples of total RNA using the Superscript Pre-Amplification System (cat.#18089-011, Life Technologies, Rockville, Md.) per manufacturer's instructions. Two μl of first-strand cDNA are then used to generate E. indica EPSP synthase expression cassettes via polymerase chain reaction. The oligonucleotides are added in 50 μl RT-PCR reactions at a final concentration of 0.4 μM. PCR amplifications are then performed using the Expand High Fidelity PCR System (cat.#1 732 641, Roche Molecular Biochemicals, Indianapolis, Ind.) per manufacturer's instructions, using a thermal profile of 94° C. for 30 seconds, then 57° C. for 2 minutes, followed by 75° C. for 3 minutes, for a total of 35 cycles. […]

O=C(O)CNCP(=O)(O)O [glyphosate, N-phosphonomethylglycine]
increase in tolerance to glyphosate due to EPSP synthase from tolerant E. indica biotype: approximately three-fold increase in tolerance to glyphosate
